Assay [1] deals with T1, B1R receptor of the rat (Rattus norvegicus, UniProt P97583).
T1 construct: host or cells: CHO K1 cells (Chinese hamster ovary), stably transfected
T1 sequence (P97583 1-337): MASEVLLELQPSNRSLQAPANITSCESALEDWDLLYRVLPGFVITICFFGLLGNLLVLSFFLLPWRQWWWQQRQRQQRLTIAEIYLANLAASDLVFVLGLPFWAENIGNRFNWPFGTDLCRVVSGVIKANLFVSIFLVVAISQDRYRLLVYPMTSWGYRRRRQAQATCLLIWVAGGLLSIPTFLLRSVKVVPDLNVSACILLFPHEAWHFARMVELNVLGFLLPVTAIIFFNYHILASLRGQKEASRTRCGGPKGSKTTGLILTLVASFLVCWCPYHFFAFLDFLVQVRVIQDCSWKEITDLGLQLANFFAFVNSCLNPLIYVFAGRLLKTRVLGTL
In words: Functional study on the bradykinin receptor 1 (B1R), FLIPR Ca2+ assay, rB1R cells. The class given is cell-based. The settings on record: agonist Des-Arg9-bradykinin 100 nM, % inhibition compared with the maximum achievable inhibition; for inhibition at 10 µM: CHO-K1, test substance 10 μM, read-out: B1R Antagonism, rat [10 μM] % Inhibition; for B1R Antagonism, rat [10 μM] % Inhibition: test substance 10 μM, rB1R CHO K1 cells. Put shortly: (§1)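 FLIPR Ca2+ assay in recombinant CHO K1 cells (human or rat B1R), Fluo-4 dye; 10 μM compound, 10 min, then EC-level agonist per species (0.5 nM Lys-Des-Arg9-BK human / 100 nM Des-Arg9-BK rat). Output: % inhibition vs maximum.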

Assay [2] has as its target T2, human B1R receptor (Homo sapiens, UniProt P46663).
T2 construct: host or cells: CHO K1 cells (Chinese hamster ovary), stably transfected
T2 sequence (P46663 1-353): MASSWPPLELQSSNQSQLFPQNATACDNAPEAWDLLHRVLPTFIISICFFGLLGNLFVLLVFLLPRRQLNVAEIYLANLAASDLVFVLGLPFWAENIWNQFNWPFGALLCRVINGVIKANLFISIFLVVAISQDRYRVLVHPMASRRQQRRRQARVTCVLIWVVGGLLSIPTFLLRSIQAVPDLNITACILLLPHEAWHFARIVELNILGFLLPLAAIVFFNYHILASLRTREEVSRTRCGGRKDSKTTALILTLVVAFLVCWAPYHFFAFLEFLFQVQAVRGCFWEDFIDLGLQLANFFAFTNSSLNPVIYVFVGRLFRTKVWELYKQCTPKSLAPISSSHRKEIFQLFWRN
In words: Functional study on the bradykinin receptor 1 (B1R), FLIPR Ca2+ assay, hB1R cells. The class given is cell-based. The settings on record: agonist Lys-Des-Arg9-bradykinin 0.5 nM, % inhibition compared with the maximum achievable inhibition; for inhibition at 10 µM: CHO-K1, test substance 10 μM, read-out: B1R Antagonism, human [10 μM] % Inhibition; for B1R Antagonism, human [10 μM] % Inhibition: test substance 10 μM, hB1R CHO K1 cells. Put shortly:
as §1

Counter-ions that a name gives are not always drawn.

For `Cc1c(S(=O)(=O)N2CCCCC2COCC(=O)N2CCN(C3CCN(C)CC3)CC2)sc2ccc(Cl)cc12` (centres unmarked) [Example 151, 2-((1-(5-chloro-3-methylbenzo[b]thiophen-2-ylsulfonyl)piperidin-2-yl)methoxy)-1-(4-(1-methylpiperidin-4-yl)piperazin-1-yl)ethanone dihydrochloride], the inhibition at 10 µM came to 103% in assay [1] and 107% in assay [2].
For `COc1cc(C)c(S(=O)(=O)N2CCCCC2COCC(=O)N2CCN(c3ccncc3)CC2)c(C)c1` (centres unmarked) [Example 147, 2-((1-(4-methoxy-2,6-dimethylphenylsulfonyl)piperidin-2-yl)methoxy)-1-(4-(pyridin-4-yl)piperazin-1-yl)ethanone], in that order: 100% and 100%.
For the compound `COc1cc(OC)cc(N2CCN(C(=O)COCC3CCCN3S(=O)(=O)c3c(C)cc(OC)cc3C)CC2)c1` (centres unmarked) [Example 503, 1-(4-(3,5-dimethoxyphenyl)piperazin-1-yl)-2-((1-(4-methoxy-2,6-dimethylphenylsulfonyl)pyrrolidin-2-yl)methoxy)ethanone], the inhibition at 10 µM in assay [1] was determined as 97.9%; in assay [2], 103%.
Taken in the same sequence, the figures for `COc1cc(C)c(S(=O)(=O)N2CCCCC2COCC(=O)N2CCC(Cc3cccnc3)C2)c(C)c1` (centres unmarked) [Example 208, 2-((1-(4-methoxy-2,6-dimethylphenylsulfonyl)piperidin-2-yl)methoxy)-1-(3-(pyridin-3-ylmethyl)pyrrolidin-1-yl)ethanone] were 101% and 105%.
For the compound `COc1cc(C)c(S(=O)(=O)N2CCCC2COCC(=O)N2CCN(c3cc(Cl)ccc3C)CC2)c(C)c1` (centres unmarked) [Example 311, 1-(4-(5-chloro-2-methylphenyl)piperazin-1-yl)-2-((1-(4-methoxy-2,6-dimethylphenylsulfonyl)pyrrolidin-2-yl)methoxy)ethanone], the inhibition at 10 µM in assay [1] amounted to 103%; in assay [2] it was 94.9%.
Taken in the same sequence, the figures for `COc1cc(C)c(S(=O)(=O)N2CCCC2COCC(=O)N2CCN(c3ncccc3C#N)CC2)c(C)c1` (centres unmarked) [Example 312, 2-(4-(2-((1-(4-methoxy-2,6-dimethylphenylsulfonyl)pyrrolidin-2-yl)methoxy)acetyl)piperazin-1-yl)nicotinonitrile] were 98.7% and 98.5%.
`Cc1cc(C)c(S(=O)(=O)N2Cc3ccccc3CC2COCC(=O)N2CCN(CCCN(C)C)CC2)c(C)c1` (centres unmarked) [Example 25, 1-[4-(3-dimethylamino-propyl)-piperazin-1-yl]-2-[2-(2,4,6-trimethyl-phenylsulfonyl)-1,2,3,4-tetrahydro-isoquinolin-3-ylmethoxy]-ethanone]: the results for the inhibition at 10 µM in assay [1] and in assay [2] were 80.6% and 91%, respectively.
Consider `COc1ccc(S(=O)(=O)N2CCCCC2COCC(=O)Nc2ccc(NC(=O)CN3CCCCC3)c(C)c2)cc1` (centres unmarked) [Example 557, 2-((1-(4-methoxyphenylsulfonyl)piperidin-2-yl)methoxy)-N-(3-methyl-4-(2-(piperidin-1-yl)acetamideo)phenyl)acetamide], for which, in assay [1], the “B1R Antagonism, rat [10 μM] % Inhibition” value was determined as 87.56%. Further, the “B1R Antagonism, human [10 μM] % Inhibition” value in assay [2] was 29.73%.
Consider `O=C(COCC1CCCN1S(=O)(=O)c1c(Cl)cccc1Cl)N1CCN(c2ccc(Cl)c(Cl)c2)CC1` (centres unmarked) [Example 356, 1-(4-(3,4-dichlorophenyl)piperazin-1-yl)-2-((1-(2,6-dichlorophenylsulfonyl)pyrrolidin-2-yl)methoxy)ethanone], for which the inhibition at 10 µM in assay [1] turned out to be 103%; in assay [2], 43%.
Take `COc1cc(C)c(S(=O)(=O)N2CCCCC2COCC(=O)Nc2cccnc2N2CCOCC2)c(C)c1` (centres unmarked) [Example 395, 2-((1-(4-methoxy-2,6-dimethylphenylsulfonyl)piperidin-2-yl)methoxy)-N-(2-morpholinopyridin-3-yl)acetamide]: the results for the inhibition at 10 µM in assay [1] and in assay [2] were 100% and 12.6%, respectively.
Taken in the same sequence, the figures for `O=C(COCC1CCCN1S(=O)(=O)c1ccc(Cl)c(Cl)c1)N1CCN(Cc2ccc3c(c2)OCO3)CC1` (centres unmarked) [Example 44, 1-(4-benzo[1,3]dioxol-5-ylmethyl-piperazin-1-yl)-2-[1-(3,4-dichloro-phenylsulfonyl)-pyrrolidin-2-ylmethoxy]-ethanone] were 0% and 69.6%.
For `O=C(COCC1CCCCN1S(=O)(=O)c1c(Cl)cccc1Cl)NCc1ccc(CN2CCOCC2)cc1` (centres unmarked) [Example 549, 2-((1-(2,6-dichlorophenylsulfonyl)piperidin-2-yl)methoxy)-N-(4-(morpholinomethyl)benzyl)acetamide], in that order: 99% and 75.8%.
Taken in the same sequence, the figures for `COc1cc(C)c(S(=O)(=O)N2CCCC2COCC(=O)N2CCC(N3CCOCC3)CC2)c(C)c1` (centres unmarked) [Example 519, 2-((1-(4-methoxy-2,6-dimethylphenylsulfonyl)pyrrolidin-2-yl)methoxy)-1-(4-morpholinopiperidin-1-yl)ethanone] were 103% and 81.9%.
Turning to `COc1cc(C)c(S(=O)(=O)N2CCCCC2COCC(=O)Nc2cc(-c3cccc(F)c3)[nH]n2)c(C)c1` (centres unmarked) [Example 542, N-(5-(3-fluorophenyl)-1H-pyrazol-3-yl)-2-((1-(4-methoxy-2,6-dimethylphenylsulfonyl)piperidin-2-yl)methoxy)acetamide], the inhibition at 10 µM in assay [1] was found to be 107%; in assay [2] it was 49.2%.
Taken in the same sequence, the figures for `O=C(COCC1CCCCN1S(=O)(=O)c1c(Cl)cccc1Cl)NC1CCN(Cc2ccccc2)CC1` (centres unmarked) [Example 488, N-(1-benzylpiperidin-4-yl)-2-((1-(2,6-dichlorophenylsulfonyl)piperidin-2-yl)methoxy)acetamide] were 102% and 101%.
For `COc1ccc(S(=O)(=O)N2c3ccccc3CC2COCC(=O)N2CCC(CCN3CCCCC3)CC2)cc1` (centres unmarked) [Example 547, 2-((1-(4-methoxyphenylsulfonyl)indolin-2-yl)methoxy)-1-(4-(2-(piperidin-1-yl)ethyl)piperidin-1-yl)ethanone], in that order: 100% and 77.4%.
For `COc1ccc(S(=O)(=O)N2CCCCC2CCOCC(=O)N2CCC(CCN3CCCCC3)CC2)cc1` (centres unmarked) [Example 90, 2-(2-(1-(4-methoxyphenylsulfonyl)piperidin-2-yl)ethoxy)-1-(4-(2-(piperidin-1-yl)-ethyl)piperidin-1-yl)ethanone], in that order: 99.5% and 50%.
Turning to `O=C(COCC1Cc2ccccc2N1S(=O)(=O)c1ccc(Cl)c(Cl)c1)NCC1CCCN(Cc2ccccc2)C1` (centres unmarked) [Example 16, N-(1-benzyl-piperidin-3-ylmethyl)-2-[1-(3,4-dichloro-phenylsulfonyl)-2,3-dihydro-1H-indol-2-ylmethoxy]-acetamide], the inhibition at 10 µM stood at 25.5% in assay [1] and 95.9% in assay [2].
For `COc1ccccc1N1CCN(C(=O)COCC2CCCCN2S(=O)(=O)c2c(Cl)cccc2Cl)CC1` (centres unmarked) [Example 498, 2-((1-(2,6-dichlorophenylsulfonyl)piperidin-2-yl)methoxy)-1-(4-(2-methoxyphenyl)piperazin-1-yl)ethanone], in that order: 96.7% and 94.2%.
For `COc1cc(C)c(S(=O)(=O)N2CCCCC2COCC(=O)N2CCN(Cc3ccc4nccnc4c3)CC2)c(C)c1` (centres unmarked) [Example 166, 2-((1-(4-methoxy-2,6-dimethylphenylsulfonyl)piperidin-2-yl)methoxy)-1-(4-(quinoxalin-6-ylmethyl)piperazin-1-yl)ethanone], in that order: 99.3% and 99.4%.
For `O=C(COCC1CCCCN1S(=O)(=O)c1c(Cl)cccc1Cl)N(Cc1ccccc1)c1ccccn1` (centres unmarked) [Example 486, N-benzyl-2-((1-(2,6-dichlorophenylsulfonyl)piperidin-2-yl)methoxy)-N-(pyridin-2-yl)acetamide], in that order: 101% and 70.4%.
As to `CN1CCC(N2CCN(C(=O)COCC3CCCCN3S(=O)(=O)c3c(Cl)cccc3Cl)CC2)CC1` (centres unmarked) [Example 565, 2-((1-(2,6-dichlorophenylsulfonyl)piperidin-2-yl)methoxy)-1-(4-(1-methylpiperidin-4-yl)piperazin-1-yl)ethanone], the “B1R Antagonism, rat [10 μM] % Inhibition” value in assay [1] is listed as 102.52%. In addition, in assay [2], the “B1R Antagonism, human [10 μM] % Inhibition” value turned out to be 104.82%.

What is called inhibition is the relative decrease from the control value, in per cent.

The record behind these values is patent US8435978B2, “Substituted sulfonamide compounds” (Gruenenthal GmbH, priority 2006, dated 2013).
